Results from patent US20240287081A1, “PERFLUOROALKANE SUBSTITUTED PYRAZOLO[3,4-D]PYRIMIDIN AND PYRROLO[2,3-D]PYRIMIDIN COMPOUNDS AND USES THEREOF” (ICAHN SCHOOL OF MEDICINE AT MOUNT SINAI, priority 2021, published 2024).

How the values were obtained:
[1] = system: ptc>dRet^M955T flies; assay: Fly rescue assay (Drosophila MTC model ptc>dRet^M955T); assay type: in vivo; conditions: compound in fly food, 13 d at 25° C., baseline viability 0%
Method: Kinase-mutated fly stocks were obtained from Bloomington Drosophila Stock Center (BDSC; Bloomington, IN). The active mutant form of Drosophila Ret (dRet^955T) carries an M955T mutation corresponding to the M918T mutation commonly reported for multiple endocrine neoplasia (MEN) type 2B patients12,14,16,34. The ptc-gal4, UAS-GFP;UAS-dRet^M955T/SM5tub-gal80-TM6B transgenic flies were prepared according to standard protocols and crossed with non-transgenic w-flies (BDSC) to generate ptc-gal4, UAS-GFP; UAS-dRet^M955T(ptc>dRet^M955T) flies for chemical screening.
All drugs were synthesized in-house. All compounds were dissolved in DMSO (Sigma-Aldrich; St. Louis, MO) and mixed with semi-defined fly medium (BDSC) to make drug food (0.1% final DMSO concentration). For drug screening, ptc>dRet^M955T embryos were raised until adulthood on drug food for 13 d at 25° C. The number of empty pupal cases (i.e., adults) ? that of total pupal cases (P) to determine % viability. Fly randomization was used throughout the assays.
In this model, compounds are assessed based on their ability to suppress oncogenic Ret^M955T-induced tumors, which can be quantified as ‘rescue’ from lethality. […] The baseline viability of ptc>Ret^1955T flies was calibrated to zero, which creates a high bar for rescue but also reduces false-positive hits. Hundreds of flies are tested per condition (typical n values are […] administered through fly food.

[2] = system: P-gp; assay: MDCK permeability assay; assay type: in vitro ADME; conditions: dog, 1 hour at 37° C., HBSS pH 7.4 both sides, read-out: influx/efflux ratio in MDCK
Method: (§1) FIGS. 9A-9C show the physicochemical comparison of R^F and R^H Analogs. FIG. 9A is a graph of the MDCK and Caco-2 permeability assays for the indicated compounds. Compounds were assayed at 5 μM and transport (Papp, B-A and Papp, A-B, ×10^−6 cm/s) values were measured to determine influx over efflux ratios. […] There are differences in magnitude for bond and molecular dipoles, and R^F- and R^H-substituents have opposite charge profiles.
(§2) Caco-2 and MDCK permeability assays to assess transport in both directions, apical to basolateral (A-B) and basolateral to apical (B-A), across a cell monolayer were conducted at Quintara Discovery. The compounds were tested at a final concentration of 5 microM, with HBSS, pH 7.4 on apical side and HBSS, pH 7.4 on basolateral side. Transport was allowed to proceed for 1 hour at 37° C., with compound detection performed by LC-MS/MS. Assays were conducted twice. Papp, B-A and Papp, A-B, ×10^−6 cm/s values were determined at Quintara.

[3] = Caco-2 permeability assay; assay type: in vitro ADME; conditions: human, 1 hour at 37° C., HBSS pH 7.4 both sides, read-out: influx/efflux ratio in Caco-2
Method: as §1, §2

[4] = system: human MTC cell line TT; conditions: previous work; cited from earlier work
[5] = system: panel of 468 purified human kinases; assay: In vitro kinase percent inhibition, panel of 468 kinases (DiscoverX); assay type: binding; conditions: 1 μM; for binding to wild-type RET and RET^M918T, in words: kinase panel
Method: Compounds were assayed against a panel of 468 purified human kinases (DiscoverX) to measure percentage inhibition values and derive kinome profiles (FIGS. 3B-3C). All compounds were screened at 1 μM, using two experimental replicates to determine percent inhibition values. Detailed procedures for kinase reactions and assay formats are described at http://www.discoverx.com. Raw data sets for individual compounds were filtered based on the variance of experimental replicates (cutoff=average variance+standard deviation).

[6] = target: T1, wild-type RET kinase domain (Homo sapiens, UniProt P07949); assay: Wild-type RET Kd, bead based competition assay (KINOMEscan, DiscoverX); assay type: binding; conditions: recombinant human wild-type RET kinase domain, average of two replicates; read-out: Kd towards wild-type RET
T1 construct: determined against recombinant-human, wild-type RET kinase domain; phage display fusion (kinase expressed on phage); purchased DiscoverX (Fremont, CA); host or cells: phage
T1 sequence (P07949 724-1016 limits assumed): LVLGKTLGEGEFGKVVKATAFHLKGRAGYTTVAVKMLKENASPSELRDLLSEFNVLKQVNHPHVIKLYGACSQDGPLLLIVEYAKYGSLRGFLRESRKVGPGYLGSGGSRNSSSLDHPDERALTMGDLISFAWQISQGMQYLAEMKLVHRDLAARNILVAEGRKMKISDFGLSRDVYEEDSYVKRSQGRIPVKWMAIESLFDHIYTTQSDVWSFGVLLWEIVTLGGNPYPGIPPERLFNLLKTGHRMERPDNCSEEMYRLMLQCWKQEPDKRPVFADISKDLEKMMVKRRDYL
Method: Wild-type RET Kd values were determined by DiscoverX (Fremont, CA) using a bead based competition assay (KINOMEscan). In brief, kinases are expressed on phage and immobilized on beads via active site-directed ligands. Test compounds are premixed with kinases and assayed for the ability to compete for immobilized ligands. Binding constants are calculated with a standard dose-response curve and the Hill equation, with Hill slope set to −1. […] Kd values are the average of two experimental replicates.
To assess if the differences in activity between R^F- and R^H-analogs were related to alterations in target engagement, representative analogs for binding on wild-type RET were compared. For this KD values of compounds 40 (para-C2F5) and 50 (para-C2H5) were determined against recombinant-human, wild-type RET kinase domain.

[7] = cited from earlier work

| SMILES | rescue (percent viability of adult flies, adults/pupae×100) [1] | efflux ratio at 1 h, 5 µM [2] | efflux ratio at 1 h, 5 µM [3] | performance in mouse xenograft, in words [4] | binding to wild-type RET and RET^M918T, in words [5] | binding to wild-type RET and RET^M918T, in words ([5]; listed as 8-82-1) | binding profile / selectivity across the kinome, in words ([5]; panel of 468 kinases) | number of kinases bound with >80% efficacy ([5]; panel of 468 kinases) | Kd [6] | protein-bound in blood plasma [7] |
| --- | --- | --- | --- | --- | --- | --- | --- | --- | --- | --- |
| CNC(=O)c1cc(Oc2ccc(NC(=O)Nc3cc(C(F)(C(F)(F)F)C(F)(F)F)ccc3F)cc2)ccn1 [APS-6-45] | 84% | < 2 | > 2 | performed well | – | – | – | – | – | – |
| CNC(=O)c1cc(Oc2ccc(NC(=O)Nc3ccc(C(F)(C(F)(F)F)C(F)(F)C(F)(F)F)cc3)c(F)c2)ccn1 (stereo not shown) [APS-8-82-1] | 85% | – | – | – | selective for mutant RET^M918T | selectivity for the M918T mutant over wild-type | highly selective across the kinome | 7 | 110 nM | – |
| CNC(=O)c1cc(Oc2ccc(NC(=O)Nc3ccc(Cl)c(C(F)(F)F)c3)cc2)ccn1 [Sorafenib, sorafenib] | – | < 2 | > 2 | – | – | – | – | – | – | > 99% |
